Measured values published in PubChem BioAssay (NCI).
Values joined by “and” are separate entries in the source; they are usually repeats but may differ in a detail not shown here. Equal entries are not always repeated.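 Step 1: Grow cells in 96-well plates. Step 2: Expose to compound for 48 hours at 5 concentrations. Step 3: Interpolate endpoints linearly; if unreached, use highest concentration. Abbreviation: GI50, concentration required for 50% inhibition of growth. The concentration for full growth arrest is given as TGI.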

Legend:
Assay in all cases: DTP human tumour cell line panel, 48 h
[1] = test system: HS 578T breast
[2] = test system: MCF7 breast
[3] = test system: IGROV1 ovarian
[4] = test system: UACC-257 melanoma
[5] = test system: U251 CNS
[6] = test system: PC-3 prostate
[7] = test system: SR leukemia
[8] = test system: SNB-19 CNS
[9] = test system: LOX IMVI melanoma
[10] = test system: DU-145 prostate

Row | SMILES | TGI [1] | TGI [2] | TGI [3] | TGI [4] [µM] | TGI [5] | TGI [6] | TGI [7] | TGI [8] | TGI [9] | TGI [10] | GI50 [1] | GI50 [2] | GI50 [3] | GI50 [4] | GI50 [5] | GI50 [6] | GI50 [7] | GI50 [8] | GI50 [9] | GI50 [10]
1 | CC(CO)[C@H]1OC(=O)C=C2[C@@]13O[C@@H]3[C@H]1OC(=O)[C@@]3(C)[C@H]4O[C@H]4C[C@@]2(C)[C@@H]13 (some centres undefined) | 12.6 µM | 8.05 µM | 12 µM | > 26.1 | > 100 µM | 23.1 µM | 0.982 µM | > 30.8 µM | 1.14 µM | > 27.1 µM |  |  |  |  |  |  |  |  |  | 
2 | Cc1ccc(C(=O)/C(=C/c2ccc([N+](=O)[O-])cc2)S(=O)Cc2ccccc2)cc1 (centres undefined) | 8.87 µM | 2.2 µM | 3.29 µM | 3.08 | 2.24 µM | 2.95 µM | 5.21 µM | 3.07 µM | 1.67 µM | 2.69 µM | 2.58 µM | 0.372 µM | 1.42 µM | 1.65 µM | 1.02 µM | 1.35 µM | 0.539 µM | 1.55 µM | 0.417 µM | 1.34 µM
3 | COc1ccc(C(=O)N2c3ccccc3Sc3ccccc32)c(F)c1 | > 100 µM | > 100 µM | > 100 µM | > 100 | > 100 µM | > 100 µM | > 100 µM | > 100 µM | > 100 µM | > 100 µM | 0.377 µM | 0.405 µM | 0.808 µM | > 100 µM | 0.615 µM | 0.407 µM | 0.38 µM | 0.571 µM | 0.726 µM | 1.4 µM
4 | Cc1ccc(C(=O)Nc2ccc(CN3CCN(C)CC3)c(C(F)(F)F)c2)cc1C#Cc1cnc(N)c2ccc(F)cc12 | 1.37 µM | 0.861 µM | 0.501 µM | 1.95 | 0.717 µM | 1.66 µM | 1.3 µM | 1.81 µM | 0.557 µM | 0.554 µM | 0.301 µM | 0.441 µM | 0.0575 µM | 0.594 µM | 0.275 µM | 0.508 µM | 0.262 µM | 0.641 µM | 0.216 µM | 0.139 µM
5 | Cc1cc2c(C(C)C)c(O)c(O)c(C=Nc3cc(C(F)(F)F)ccc3Cl)c2c(O)c1-c1c(C)cc2c(C(C)C)c(O)c(O)c(C=Nc3cc(C(F)(F)F)ccc3Cl)c2c1O | > 100 µM | 71.4 µM | 75 µM | > 100 | 72.2 µM | > 100 µM | > 100 µM | > 100 µM | 47.3 µM | > 100 µM |  |  |  |  |  |  |  |  |  | 
6 | O=C(O)c1cc[c]([Hg][S]c2ncnc3nc[nH]c23)cc1 | 6.06 µM | > 38.9 µM | 23.8 µM | 22.9 | 28.2 µM | 23.5 µM | 7.16 µM | > 100 µM | 17.1 µM | 25.1 µM | 1.5 µM | 2.6 µM | 9.25 µM | 10.4 µM | 14.4 µM | 8.37 µM | 1.32 µM | > 76.7 µM | 0.684 µM | 7.47 µM
7 | COc1cc2cc(Oc3ccc(NC(=O)c4cccc(C(F)(F)F)c4)cc3)c(C)nc2cc1OC | 58.4 µM | 24.3 µM | > 100 µM | > 100 | > 100 µM | > 100 µM | > 100 µM | > 100 µM | > 100 µM | > 100 µM | 2.97 µM | 3.47 µM | 6.78 µM | 5.41 µM | 4.44 µM | 2.85 µM | 3.25 µM | 8.09 µM | 4.36 µM | 8.48 µM
8 | CC1(C)N=C(N)N=C(N)N1c1ccc(CCc2ccccc2)c(Cl)c1 | 27.2 µM | 13 µM | 15.7 µM | 13.1 | 13 µM | 12.1 µM | 18.7 µM | 15.4 µM | 13.5 µM | 15.8 µM | 3.7 µM | 0.058 µM | 0.0668 µM | 0.392 µM | 0.0427 µM | 0.0916 µM | 0.0562 µM | 0.172 µM | 0.0426 µM | 0.0911 µM
9 | COC(=O)c1ccc2c(c1)C(NC(C)=O)CCc1cc(OC)c(OC)c(OC)c1-2 (centres undefined) | 7.78 µM | > 100 µM | > 41.1 µM | > 100 | 16.5 µM | > 36.9 µM | 2.68 µM | > 86.9 µM | > 96.5 µM | 0.0865 µM |  |  |  |  |  |  |  |  |  | 
10 | S=C(N/N=C/c1cc(Cl)cc(Cl)c1)NC12CC3CC(CC(C3)C1)C2 | 7.41 µM | > 100 µM | > 100 µM | > 100 | > 33.6 µM | > 100 µM | > 32 µM | > 100 µM | > 100 µM | > 100 µM | 2.16 µM | > 82.3 µM | 8.8 µM | > 22.7 µM | 3.18 µM | > 30.2 µM | 5.02 µM | 5.99 µM | 6.09 µM | 12.8 µM
11 | C#C[C@]1(O)CC[C@H]2[C@@H]3CC=C4c5nc(Nc6ccccn6)sc5CC[C@]4(C)[C@H]3CC[C@@]21C | 2.4 µM | 3.73 µM | 10.9 µM | 2.55 | 2.13 µM | 3.99 µM | 3.24 µM | 5.59 µM | 2.59 µM | 9.16 µM | 0.421 µM | 0.968 µM | 2.27 µM | 0.778 µM | 0.541 µM | 0.489 µM | 0.542 µM | 1.37 µM | 1.29 µM | 2.16 µM
12 | CN1CCCN(CCNc2nccc(-c3c(-c4cccc(O)c4)nc4sccn34)n2)S1(=O)=O | 75 µM and 26 µM | 75 µM and > 100 µM | 16.6 µM and 43.6 µM |  | 50.4 µM and > 51.1 µM | 75 µM and > 100 µM | 35.2 µM and 27.8 µM | 75 µM and > 100 µM | 16.7 µM and 21.5 µM | 46.9 µM and > 59.3 µM | 7.08 µM and 3.04 µM | 22.1 µM and 18.8 µM | 3.93 µM and 5.33 µM | 0.132 µM and 1.01 µM | 8.99 µM and 11.9 µM | 16.3 µM and 14.6 µM | 4.57 µM and 2.85 µM | 40 µM and 48.7 µM | 1.55 µM and 1.99 µM | 6.84 µM and 6.32 µM
13 | CCN(c1ccc(CO)c(Cl)c1)C(C)c1ccc(F)cc1 (centres undefined) | 40.2 µM | 27.1 µM | 4 µM | 12.8 | 22 µM | 26.7 µM | 43.1 µM | 30.5 µM | 32.9 µM | 31.2 µM | 16.9 µM | 12.5 µM | 0.891 µM | 2.8 µM | 9 µM | 13.1 µM | 19.8 µM | 16 µM | 17.1 µM | 16.9 µM
